Key:
FGFR-4 = FGFR-4 (Homo sapiens, UniProt P22455, G388R); format: cell-based
FGFR-1 = FGFR-1 (Homo sapiens, UniProt P11362); format: cell-based
Chain of FGFR-1 (P11362 22-822): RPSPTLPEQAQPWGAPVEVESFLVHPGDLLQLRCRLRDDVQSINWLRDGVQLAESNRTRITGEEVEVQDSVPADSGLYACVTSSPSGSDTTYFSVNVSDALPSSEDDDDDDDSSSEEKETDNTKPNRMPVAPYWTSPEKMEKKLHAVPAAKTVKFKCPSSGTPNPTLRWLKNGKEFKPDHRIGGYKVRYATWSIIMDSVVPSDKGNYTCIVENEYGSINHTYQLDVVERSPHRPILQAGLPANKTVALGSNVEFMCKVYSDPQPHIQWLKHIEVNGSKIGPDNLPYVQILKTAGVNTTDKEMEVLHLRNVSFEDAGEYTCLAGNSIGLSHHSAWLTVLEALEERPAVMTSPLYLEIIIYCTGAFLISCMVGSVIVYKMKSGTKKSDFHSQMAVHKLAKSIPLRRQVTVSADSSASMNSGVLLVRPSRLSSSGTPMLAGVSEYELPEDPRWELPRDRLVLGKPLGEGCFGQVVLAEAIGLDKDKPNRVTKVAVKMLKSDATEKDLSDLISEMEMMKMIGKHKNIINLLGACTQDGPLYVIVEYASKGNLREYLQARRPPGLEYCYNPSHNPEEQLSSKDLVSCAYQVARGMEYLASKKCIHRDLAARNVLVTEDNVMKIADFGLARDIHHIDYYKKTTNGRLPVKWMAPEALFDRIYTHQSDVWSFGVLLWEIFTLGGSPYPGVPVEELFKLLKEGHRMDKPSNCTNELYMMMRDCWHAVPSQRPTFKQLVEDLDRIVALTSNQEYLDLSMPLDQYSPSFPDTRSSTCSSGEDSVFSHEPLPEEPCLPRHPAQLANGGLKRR

Chain of FGFR-4 (P22455 22-802 G388R): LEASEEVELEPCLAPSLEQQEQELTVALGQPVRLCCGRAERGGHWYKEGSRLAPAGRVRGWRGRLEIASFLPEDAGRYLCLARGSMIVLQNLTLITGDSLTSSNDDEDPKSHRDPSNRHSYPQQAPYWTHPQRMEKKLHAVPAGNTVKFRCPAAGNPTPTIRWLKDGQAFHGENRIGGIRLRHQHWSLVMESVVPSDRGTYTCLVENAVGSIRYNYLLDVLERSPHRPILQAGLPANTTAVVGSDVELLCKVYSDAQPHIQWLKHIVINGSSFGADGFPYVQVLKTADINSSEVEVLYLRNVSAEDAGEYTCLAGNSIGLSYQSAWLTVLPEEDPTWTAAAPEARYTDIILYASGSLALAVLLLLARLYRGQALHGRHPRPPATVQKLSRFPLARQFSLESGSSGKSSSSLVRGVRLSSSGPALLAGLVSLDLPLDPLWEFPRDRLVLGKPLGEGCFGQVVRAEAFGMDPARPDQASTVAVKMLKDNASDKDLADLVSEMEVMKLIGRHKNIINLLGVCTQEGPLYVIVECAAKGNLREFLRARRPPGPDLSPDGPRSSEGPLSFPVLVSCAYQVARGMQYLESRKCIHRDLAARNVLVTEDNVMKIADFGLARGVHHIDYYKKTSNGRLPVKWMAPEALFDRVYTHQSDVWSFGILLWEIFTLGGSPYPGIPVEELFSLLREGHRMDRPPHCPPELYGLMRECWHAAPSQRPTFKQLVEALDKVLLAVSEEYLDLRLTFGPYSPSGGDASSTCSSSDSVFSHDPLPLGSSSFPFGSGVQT

% inhibition at 100 nM (FGFR-4): 75
% inhibition at 100 nM (FGFR-1): 86
Substance: AZ8010

Source: publication PMC4654778 (Clinical cancer research : an official journal of the …, 2012)
